Assay results reported in patent US10099993B2, “Metabotropic glutamate receptor positive allosteric modulators (PAMS) and uses thereof” (Sanford-Burnham Medical Research Institute, priority 2014, dated 2018).

Legend:
mGlu2 = mGlu2 (Rattus norvegicus (Rat), UniProt P31421); experiment: mGlu2 GIRK thallium flux assay; details: for EC50: read-out: mGlu2 PAM EC50, test compound, then EC20 glutamate […] later in the presence of thallium; for Emax: read-out: mGlu2 PAM Max;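 on all read-outs here: Cell-based assay, rate of fluorescence rise right after thallium plus agonist addition read on a kinetic imaging plate reader, normalized to vehicle and maximal agonist control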
Sequence of mGlu2 (P31421 19-872): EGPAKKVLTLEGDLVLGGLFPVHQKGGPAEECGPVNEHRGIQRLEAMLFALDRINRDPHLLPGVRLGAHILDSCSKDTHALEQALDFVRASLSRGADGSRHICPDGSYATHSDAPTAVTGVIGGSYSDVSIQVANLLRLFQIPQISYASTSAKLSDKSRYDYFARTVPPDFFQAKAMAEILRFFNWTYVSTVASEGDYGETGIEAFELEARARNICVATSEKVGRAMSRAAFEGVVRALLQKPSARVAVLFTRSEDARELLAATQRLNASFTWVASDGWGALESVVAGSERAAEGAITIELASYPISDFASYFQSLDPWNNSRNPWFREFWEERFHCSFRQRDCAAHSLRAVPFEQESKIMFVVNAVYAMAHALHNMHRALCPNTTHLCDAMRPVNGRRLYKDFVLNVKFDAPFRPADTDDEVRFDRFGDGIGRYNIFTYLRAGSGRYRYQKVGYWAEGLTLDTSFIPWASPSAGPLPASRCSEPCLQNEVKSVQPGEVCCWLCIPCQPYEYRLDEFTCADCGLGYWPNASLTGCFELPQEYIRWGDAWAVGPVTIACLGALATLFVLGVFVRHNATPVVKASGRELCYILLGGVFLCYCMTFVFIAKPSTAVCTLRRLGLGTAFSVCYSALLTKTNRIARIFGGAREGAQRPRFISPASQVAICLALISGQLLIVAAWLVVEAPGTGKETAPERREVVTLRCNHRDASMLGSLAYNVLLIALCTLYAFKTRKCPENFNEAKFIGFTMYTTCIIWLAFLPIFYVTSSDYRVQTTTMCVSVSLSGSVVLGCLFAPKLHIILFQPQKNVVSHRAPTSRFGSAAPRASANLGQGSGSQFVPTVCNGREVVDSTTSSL

mGlu3 = mGlu3 (Rattus norvegicus (Rat), UniProt P31422); experiment: mGlu3 GIRK thallium flux assay; details: for EC50: read-out: mGlu3 PAM EC50, test compound, then EC20 glutamate […] later in the presence of thallium; for Emax: read-out: mGlu3 PAM Max;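 on all read-outs here: kinetic fluorescence slope read shortly after thallium plus agonist addition, scaled between vehicle and maximal agonist control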
Sequence of mGlu3 (P31422 23-879): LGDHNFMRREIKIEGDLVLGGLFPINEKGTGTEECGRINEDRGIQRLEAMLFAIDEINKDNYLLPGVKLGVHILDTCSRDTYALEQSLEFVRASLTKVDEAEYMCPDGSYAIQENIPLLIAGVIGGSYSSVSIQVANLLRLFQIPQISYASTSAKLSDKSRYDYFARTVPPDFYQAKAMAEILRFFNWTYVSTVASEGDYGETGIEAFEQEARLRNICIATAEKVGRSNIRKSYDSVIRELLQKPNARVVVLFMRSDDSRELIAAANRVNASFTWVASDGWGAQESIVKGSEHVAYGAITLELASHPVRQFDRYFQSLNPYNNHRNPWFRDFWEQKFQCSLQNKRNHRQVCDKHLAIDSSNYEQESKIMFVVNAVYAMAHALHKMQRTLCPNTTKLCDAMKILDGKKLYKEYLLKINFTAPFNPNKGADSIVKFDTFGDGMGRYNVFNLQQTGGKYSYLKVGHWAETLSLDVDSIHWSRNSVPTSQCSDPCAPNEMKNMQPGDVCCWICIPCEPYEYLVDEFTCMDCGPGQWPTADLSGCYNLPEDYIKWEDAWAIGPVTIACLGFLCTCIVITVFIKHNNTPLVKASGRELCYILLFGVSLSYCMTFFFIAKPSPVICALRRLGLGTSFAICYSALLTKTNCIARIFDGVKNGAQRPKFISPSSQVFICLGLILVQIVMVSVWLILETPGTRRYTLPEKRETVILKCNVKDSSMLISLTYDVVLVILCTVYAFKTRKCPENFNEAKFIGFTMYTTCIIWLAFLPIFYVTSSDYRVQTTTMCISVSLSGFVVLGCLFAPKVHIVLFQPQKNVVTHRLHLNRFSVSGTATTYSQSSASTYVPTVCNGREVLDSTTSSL

[1] = PAM mode, mean ± SEM, at least three experiments

Row | SMILES | EC50 (mGlu2; [1]) | Emax (mGlu2) | EC50 (mGlu3; PAM mode, mean ± SEM) | Emax (mGlu3) | mGlu2 PAM Max (mGlu2; PAM mode, % Glutamate Max, mean ± SEM, at least three experiments) | mGlu3 PAM Max (mGlu3; PAM mode, % Glutamate Max, mean ± SEM)
1 | COc1ccc(C(=O)O)cc1-c1cccc(COc2ccc(C(=O)CC(C)(C)C)c(O)c2C)c1 [compound 134, 3′-((4-(3,3-Dimethylbutanoyl)-3-hydroxy-2-methylphenoxy)methyl)-6-methoxy-[1,1′-biphenyl]-3-carboxylic acid] | 118 ± 2 nM | 89.6 ± 2.9% | 324 ± 94 nM | 76.4 ± 5.4% | – | –
2 | Cc1c(OCc2cccc(-c3ccc(F)c(C(=O)O)c3)c2)ccc(C(=O)CC(C)(C)C)c1O [compound 135, 3′-((4-(3,3-Dimethylbutanoyl)-3-hydroxy-2-methylphenoxy)methyl)-4-fluoro-[1,1′-biphenyl]-3-carboxylic acid] | 208 ± 20 nM | 88.5 ± 3.8% | 587 ± 129 nM | 74.4 ± 5% | – | –
3 | Cc1c(OCc2cccc(-c3cc(F)cc(C(=O)O)c3)c2)ccc(C(=O)CC(C)(C)C)c1O [compound 136, 3′-((4-(3,3-Dimethylbutanoyl)-3-hydroxy-2-methylphenoxy)methyl)-5-fluoro-[1,1′-biphenyl]-3-carboxylic acid] | 308 ± 40 nM | 93.3 ± 2.1% | 496 ± 86 nM | 77.4 ± 7.1% | – | –
4 | Cc1c(OCc2cccc(-c3cccc(C(=O)O)c3)c2)ccc(C(=O)CC(C)C)c1O [compound 137, 3′-((3-Hydroxy-2-methyl-4-(3-methylbutanoyl)phenoxy)methyl)-[1,1′-biphenyl]-3-carboxylic acid] | 181 ± 28 nM | 85.8 ± 3.7% | 642 ± 151 nM | 76.8 ± 8% | – | –
5 | Cc1c(OCc2cccc(-c3ccccc3C(=O)O)c2)ccc(C(=O)CC(C)(C)C)c1O [compound 138, 3′-((4-(3,3-Dimethylbutanoyl)-3-hydroxy-2-methylphenoxy)methyl)-[1,1′-biphenyl]-2-carboxylic acid] | 643 ± 137 nM | 42.1 ± 7.1% | > 10000 nM | 23.5 ± 4.6% | – | –
6 | Cc1c(OCc2cccc(-c3cc(C(=O)O)ccc3F)c2)ccc(C(=O)CC(C)(C)C)c1O [compound 139, 3′-((4-(3,3-Dimethylbutanoyl)-3-hydroxy-2-methylphenoxy)methyl)-6-fluoro-[1,1′-biphenyl]-3-carboxylic acid] | 436 ± 84 nM | 88.2 ± 5.1% | 1100 ± 330 nM | 85.6 ± 5.5% | – | –
7 | COc1ccc(-c2cccc(COc3ccc(C(=O)CC(C)(C)C)c(O)c3C)c2)cc1C(=O)O [compound 140, 3′-((4-(3,3-Dimethylbutanoyl)-3-hydroxy-2-methylphenoxy)methyl)-4-methoxy-[1,1′-biphenyl]-3-carboxylic acid] | 489 ± 73 nM | 86.1 ± 6.1% | 8410 ± 4840 nM | 67.2 ± 13.3% | – | –
8 | Cc1c(OCc2cccc(-c3ccc(C(=O)O)c(Cl)c3)c2)ccc(C(=O)CC(C)(C)C)c1O [compound 141, 3-Chloro-3′-((4-(3,3-dimethylbutanoyl)-3-hydroxy-2-methylphenoxy)methyl)-[1,1′-biphenyl]-4-carboxylic acid] | 391 ± 103 nM | 67 ± 6.4% | 656 ± 265 nM | 54.9 ± 9.7% | – | –
9 | Cc1c(OCc2ccc(-c3cccc(C(=O)O)c3)cc2)ccc(C(=O)CC(C)(C)C)c1O [compound 142, 4′-((4-(3,3-Dimethylbutanoyl)-3-hydroxy-2-methylphenoxy)methyl)-[1,1′-biphenyl]-3-carboxylic acid] | 3180 ± 626 nM | 97.1 ± 8.2% | 2200 ± 753 nM | 88.7 ± 9.5% | – | –
10 | Cc1cc(-c2cccc(COc3ccc(C(=O)CC(C)(C)C)c(O)c3C)c2)ccc1C(=O)O [compound 143, 3′-((4-(3,3-Dimethylbutanoyl)-3-hydroxy-2-methylphenoxy)methyl)-3-methyl-[1,1′-biphenyl]-4-carboxylic acid] | 571 ± 138 nM | 87 ± 11.7% | 3060 ± 624 nM | 78.3 ± 21.1% | – | –
11 | Cc1c(OCc2cccc(-c3ccc(O)c(C(=O)O)c3)c2)ccc(C(=O)CC(C)(C)C)c1O [compound 144, 3′-((4-(3,3-dimethylbutanoyl)-3-hydroxy-2-methylphenoxy)methyl)-4-hydroxy-[1,1′-biphenyl]-3-carboxylic acid] | 232 ± 16 nM | 59.6 ± 4% | 701 ± 176 nM | 46.9 ± 5.6% | – | –
12 | Cc1c(OCc2cccc(-c3cccc(CC(=O)O)c3)c2)ccc(C(=O)CC(C)(C)C)c1O [compound 145, 2-(3′-((4-(3,3-dimethylbutanoyl)-3-hydroxy-2-methylphenoxy)methyl)-[1,1′-biphenyl]-3-yl)acetic acid] | 1360 ± 259 nM | 93.4 ± 11.4% | 3940 ± 1320 nM | 79.1 ± 15% | – | –
13 | Cc1c(OCc2cccc(-c3cc(C(=O)O)cc([N+](=O)[O-])c3)c2)ccc(C(=O)CC(C)(C)C)c1O [compound 146, 3′-((4-(3,3-Dimethylbutanoyl)-3-hydroxy-2-methylphenoxy)methyl)-5-nitro-[1,1′-biphenyl]-3-carboxylic acid] | 564 ± 156 nM | 98.7 ± 5.9% | 2130 ± 812 nM | 74.5 ± 11.7% | – | –
14 | Cc1c(OCc2cccc(-c3ccc(C(=O)O)cc3Cl)c2)ccc(C(=O)CC(C)(C)C)c1O [compound 147, 2-Chloro-3′-((4-(3,3-dimethylbutanoyl)-3-hydroxy-2-methylphenoxy)methyl)-[1,1′-biphenyl]-4-carboxylic acid] | 460 ± 158 nM | 98.6 ± 5.7% | 2280 ± 827 nM | 81.4 ± 9.7% | – | –
15 | Cc1c(OCc2cccc(-c3cccc(C(=O)O)c3)c2)ccc(C(=O)CCC(C)(C)C)c1O [compound 148] | 2110 ± 215 nM | – | 2580 ± 272 nM | – | 100 ± 3.9% | 101.7 ± 2.7%
16 | Cc1c(OCc2ccnc(-c3cccc(C(=O)O)c3)c2)ccc(C(=O)CC(C)(C)C)c1O [compound 149, 3-(4-((4-(3,3-Dimethylbutanoyl)-3-hydroxy-2-methylphenoxy)methyl)pyridin-2-yl)benzoic acid] | 230 ± 2 nM | 108 ± 1.2% | 203 ± 1 nM | 112 ± 3.8% | – | –
17 | Cc1c(OCc2cncc(-c3cccc(C(=O)O)c3)c2)ccc(C(=O)CC(C)(C)C)c1O [compound 150, 3-(5-((4-(3,3-Dimethylbutanoyl)-3-hydroxy-2-methylphenoxy)methyl)pyridin-3-yl)benzoic acid] | 345 ± 2 nM | 107 ± 2.6% | 345 ± 9 nM | 107 ± 6.3% | – | –
18 | Cc1c(OCc2cccc(-c3cccc(C#N)c3)c2)ccc(C(=O)CC(C)(C)C)c1O [compound 151, 3′-((4-(3,3-Dimethylbutanoyl)-3-hydroxy-2-methylphenoxy)methyl)-[1,1′-biphenyl]-3-carbonitrile] | > 10000 nM | 50.2 ± 7.4% | > 10000 nM | 35.5 ± 3.8% | – | –
19 | Cc1c(OCc2cccc(-c3cccc(-c4nn[nH]n4)c3)c2)ccc(C(=O)CC(C)(C)C)c1O [compound 152, 1-(4-((3′-(2H-Tetrazol-5-yl)-[1,1′-biphenyl]-3-yl)methoxy)-2-hydroxy-3-methylphenyl)-3,3-dimethylbutan-1-one] | – | 103 ± 1.8% | – | 98.9 ± 3.7% | – | –
20 | Cc1c(OCc2cc(-c3cccc(C(=O)O)c3)ccn2)ccc(C(=O)CC(C)(C)C)c1O [compound 153, 3-(2-((4-(3,3-Dimethylbutanoyl)-3-hydroxy-2-methylphenoxy)methyl)pyridin-4-yl)benzoic acid] | 209 ± 3 nM | 106 ± 3.9% | 158 ± 2 nM | 107 ± 5.5% | – | –
21 | Cc1c(OCc2cccc(COc3ccc(C#N)cc3)c2)ccc(C(=O)CC2CCCC2)c1C [compound 154] | > 30000 nM | – | > 30000 nM | – | – | –
22 | COC(=O)c1ccc(OCc2cccc(COc3ccc(C(=O)CC4CCCC4)c(C)c3C)c2)cc1 [compound 155] | > 30000 nM | – | > 30000 nM | – | – | –
23 | Cc1c(OCc2cccc(-c3cccc(C(=O)NS(C)(=O)=O)c3)c2)ccc(C(=O)CC(C)(C)C)c1O [compound 156, 3′-((4-(3,3-Dimethylbutanoyl)-3-hydroxy-2-methylphenoxy)methyl)-N-(methylsulfonyl)-[1,1′-biphenyl]-3-carboxamide] | – | 105 ± 2.1% | – | 103 ± 1.7% | – | –
24 | Cc1c(OCc2cccc(-c3cccc(-c4noc(=O)[nH]4)c3)c2)ccc(C(=O)CC(C)(C)C)c1O [compound 157, 3-(3′-((4-(3,3-Dimethylbutanoyl)-3-hydroxy-2-methylphenoxy)methyl)-[1,1′-biphenyl]-3-yl)-1,2,4-oxadiazol-5(4H)-one] | – | 111 ± 6.6% | – | 105 ± 2.8% | – | –
25 | Cc1c(OCc2ccc(-c3cccc(C(=O)O)c3)o2)ccc(C(=O)CC(C)(C)C)c1O [compound 158, 3-(5-((4-(3,3-Dimethylbutanoyl)-3-hydroxy-2-methylphenoxy)methyl)furan-2-yl)benzoic acid] | 328 nM | 106 ± 3.8% | 421 ± 5 nM | 110 ± 3.9% | – | –
26 | Cc1c(OCc2cccc(-c3cccc(C(=O)O)c3)n2)ccc(C(=O)CC(C)(C)C)c1O [compound 159, 3-(6-((4-(3,3-Dimethylbutanoyl)-3-hydroxy-2-methylphenoxy)methyl)pyridin-2-yl)benzoic acid] | 929 ± 12 nM | 104 ± 2.5% | 967 ± 8 nM | 115 ± 2.1% | – | –
27 | Cc1c(OCc2ncc(-c3cccc(C(=O)O)c3)s2)ccc(C(=O)CC(C)(C)C)c1O [compound 161, 3-(2-((4-(3,3-Dimethylbutanoyl)-3-hydroxy-2-methylphenoxy)methyl)thiazol-5-yl)benzoic acid] | 1878 ± 17 nM | 98.2 ± 5.2% | 3180 ± 68 nM | 114 ± 3.9% | – | –
28 | Cc1c(OCc2cc(-c3cccc(C(=O)O)c3)cs2)ccc(C(=O)CC(C)(C)C)c1O [compound 162, 3-(5-((4-(3,3-Dimethylbutanoyl)-3-hydroxy-2-methylphenoxy)methyl)thiophen-3-yl)benzoic acid] | – | 102 ± 3.5% | – | 106 ± 6.4% | – | –
29 | Cc1c(OCc2cnc(-c3cccc(C(=O)O)c3)cn2)ccc(C(=O)CC(C)(C)C)c1O [compound 163, 3-(5-((4-(3,3-Dimethylbutanoyl)-3-hydroxy-2-methylphenoxy)methyl)pyrazin-2-yl)benzoic acid] | 1450 ± 15 nM | 105 ± 1.6% | 268 ± 5 nM | 113 ± 5.4% | – | –
